Reference: patent US12708620B2, “Prodrugs and medical uses thereof” (priority 2018, dated 2026)

Key:
[1] = test system: panel of cancer cell lines; assay: formation rate of Cpd.11c and Cpd.11d metabolites in cancer cell lines; assay type: in vitro ADME, human
From the text: FIG. 3: cytotoxicity of Cpd.11 Ms and metabolites in normoxic and anoxic conditions in a panel of human cancer cell lines. […] The same panel of cell lines has been used to calculate the formation rate of Cpd.11c and Cpd.11d metabolites (B). A panel of human cell lines isolated from lung cancer (A-427, […], NCI-460, NCI-H1975), pancreatic cancer (Hs 766T, BxPC-3, Capan-1), and breast cancer (MDA-MB-453, SK-BR-3, EFM-19, Hs578t) has been exposed to synthetic version of Cpd.11c and Cpd.11d metabolites, that present cytotoxic properties also in normoxic conditions (C). The average plating efficiency in the drug-free control wells was 43% under normoxic and 30% under anoxic conditions.

[2] = test system: MDA-MB-468 tumor xenograft; assay: breast cancer (TNBC) xenograft model; assay type: in vivo, BALB/c Nude Mice; conditions: MDA-MB-468 xenograft
[3] = test system: NCI-H69 tumor xenograft; assay: lung cancer (SCLC) xenograft model; assay type: in vivo, BALB/c Nude Mice; conditions: for Anti-tumor effect: 600 mg/kg IP, hypoxic status confirmed, methanesulfonate, 600 mg/kg
Procedure: All animal models were established as xenograft model in BALB/c Nude Mice (6-8 weeks old, 17-23 grams, maintained in standard conditions and diet), following approved IACUC (Institutional Animal Care and Use Committees) protocols. Cpd.11 Ms was formulated using 2% dimethyl sulfoxide (DMSO in water for injection, starting from a Cpd.11 Ms main preparation (100-60 mg/ml in 2% DMSO in water for injection).
After tumor cell inoculation, the animals were checked daily for morbidity and mortality. Before commencement of treatment all animals were weighed and the tumor volumes were measured using a caliper. The treatments were started when the mean tumor size reached approx. 250 mm^3. […] The date of tumor cell inoculation was denoted as day 0 (thus injections were performed at day 1, 2, 3, 4, and 5). At the time of routine monitoring, the animals were checked for any effects of tumor growth and treatments on normal behavior such as mobility, visual estimation of food and water consumption, body weight gain/loss (body weights were measured daily during the 5-day treatment and thrice weekly after treatment), eye/hair matting and any other abnormal effect. Death and observed clinical signs were recorded on the basis of the numbers of animals within each subset. Tumor volumes were measured daily during the 5-day treatment and thrice weekly after treatment in two dimensions using a caliper, and the volume was expressed in mm3 using the formula: V=0.5 a×b2 where a and b are the long and short diameters of the tumor, respectively. The entire procedures of dosing as well as tumor and body weight measurement were conducted in a Laminar Flow Cabinet. Individual mice were euthanized by cervical dislocation when the tumor size reached 1400-1600 mm3. The surrogate endpoint for survival was calculated and indicated as TVx4 (initial tumor volume times 4). Statistical analysis of difference in tumor volume among the groups was conducted at the end of experiment using Independent-Samples T Test. All data were analyzed in SPSS (Statistical Product and Service Solutions) version 18.0 (IBM, Armonk, NY, U.S.). P-values were rounded to three decimal places, with the exception that raw P-values less than 0.001 were stated as P<0.001. All tests were two-sided. P<0.05 was considered to be statistically significant.
For the MDA-MB-436 tumor (ATCC: HTB-130; Passage: P4) cells were maintained in vitro as a monolayer culture in L-15 medium supplemented with 10% heat inactivated fetal bovine serum at 37° C. in an atmosphere of 100% air. For NCI-H69 (ATCC: HTB-119; Passage: P3), tumor cells were maintained in vitro in RPMI1640 medium supplemented with 10% fetal bovine serum at 370C in an atmosphere of 5% CO2 in air. For PANC-1 (ATCC: CRL-1469; Passage: P2) tumor cells were maintained in vitro as a monolayer culture in DMEM medium supplemented with 10% heat inactivated fetal bovine serum at 37 °C in an atmosphere of 5% CO2 in air. The tumor cells were routinely sub-cultured twice weekly by trypsin-EDTA treatment. The cells growing in an exponential growth phase were harvested and counted for tumor inoculation. Each mouse was inoculated with 1×10^7 tumor cells (orthotopically at the right mammary fat pad for MDA-MB-436 model, or subcutaneously at the right flank region for both NCI-H69 model and PANC-1 model) in 0.1 ml of PBS mixed with Matrigel (1:1, Corning, #354234) for tumor development. […]

[4] = test system: MDA-MB-231 tumor xenograft; assay: triple negative breast cancer xenograft model; assay type: in vivo, BALB/c Nude Mice; conditions: MDA-MB-231 xenograft; single treatment cycle
[5] = preliminary toxicology study, intravenous administration; assay type: in vivo, rat
Procedure: (§1) Preliminary toxicology studies of the intravenous administration of Cpd.11 Ms in rats and dogs according to a dosing regimen consisting of 3 consecutive days of administration in a 3 weekly cycle (QDx3/cycle) have shown that potential haematological toxicity in tissues such as the bone marrow, the thymus and lymph nodes (known to have hypoxic niches) can be minimized at dosages at or below 400 mg/kg in the rat and at or below 100 mg/kg in the dog. As such, these levels correspond to 2360 mg/m^2 and 2000 mg/m^2, respectively, in human subjects. […] Alternative dosing regimens also include weekly administration for up to 3 or 4 consecutive times of each 3 or 4 weekly cycle. In addition, also an initial dose of QDx3 or QDx5 could be combined with less frequent administration schedules that may still allow a therapeutic effect over tumor growth and development, such as up to 3 or 4 weekly dosages in 3 to 4 weekly cycles, or once a month (or every three-four weeks) schedules that be applied with or without the parallel treatment with the appropriate standard-of-care protocols.

[6] = as above; assay type: in vivo, dog
Procedure: as §1

[7] = test system: MiaPaca-2; assay: in vitro cell culture sensitivity in anoxic conditions; assay type: cell-based, human
[8] = test system: SW1990; assay: as above; assay type: cell-based, human
[9] = water solubility for preparing injection dilution

With `CCN1CCN(C(=O)c2cc(N(CCBr)CCOS(C)(=O)=O)c(S(C)(=O)=O)cc2[N+](=O)[O-])CC1.CS(=O)(=O)O` [Cpd.11 Ms, 4-(5-((2-bromoethyl) (2-((methylsulfonyl)oxy)ethyl)amino)-4-(methylsulfonyl)-2-nitrobenzoyl)-1-ethylpiperazin-1-ium methanesulfonate] the “conversion of Cpd.11 Ms into Cpd.11c and Cpd.11d (FIG. 3B)” value [1] was “strong and rapid ratio of conversion”, the Anti-tumor effect ([2]; 200-800 mg/kg IP, hypoxic status confirmed) was “Strong impact,” and the “impact on hypoxia by pimonidazole immunohistochemical staining” value ([2]; 400-800 mg/kg from 1 to 5 consecutive days) was “clear impact”. The Anti-tumor effect ([3]; single treatment cycle, listed as Cpd.11Ms) was “Strong impact,”, the Anti-tumor effect ([3]; single treatment cycle) was “significant regression of the tumours” and the “therapeutic response with alternative regimens” value ([3]; repeated administration over 3 weeks) was “longer term tumor control”. The “effects on body weight” value ([3]; single treatment cycle, IP) was “absence of effects on body weight”, the “median surrogate survival index (TVx4) in comparison to vehicle treated animals” value ([3]; single treatment cycle, IP) was “doubled” and the tumour growth [4] was “tumour growth rate reduction”. For the same compound, the “corresponding level in human subjects of the rat dosage” value ([5]; from 400 mg/kg in the rat) was 2360 mg/m^2, the “dosage at which potential haematological toxicity (bone marrow, thymus, lymph nodes) can be minimized” value ([5]; rat, intravenous, QDx3 in a 3 weekly cycle) was no more than 400 mg/kg and the “dosage at which potential haematological toxicity (bone marrow, thymus, lymph nodes) can be minimized” value ([6]; dog, intravenous, QDx3 in a 3 weekly cycle) was no more than 100 mg/kg. The “corresponding level in human subjects of the dog dosage” value ([6]; from 100 mg/kg in the dog) was 2000 mg/m^2, the “sensitivity in anoxic conditions in vitro” value [7] was “highly Cpd.11 Ms-sensitive” and the “sensitivity in anoxic conditions in vitro” value [8] was “highly Cpd.11 Ms-sensitive”. The solubility [9] was no less than 100 mg/mL.
